Data reported in ChEMBL document CHEMBL4627293, “Synthesis and in vitro activity of asymmetric indole-based bisamidine compounds against Gram-positive and Gram-negative pathogens” (2020).
Values after ≈ are worked out from the molar mass of the structure shown.

System: Enterococcus faecium
Assay: Antimicrobial activity against vancomycin-resistant Enterococcus faecium ATCC 700221
Format: functional

SMILES	MIC [µg/mL]
CC(C)NC(=N)c1ccc2cc(-c3ccc(Oc4ccc(-c5cc6ccc(C(=N)NC(C)C)cc6[nH]5)c(C(F)(F)F)c4)cn3)[nH]c2c1	0.5 (≈ 0.784 µM)
C[C@H]1COc2c(N3CCN(C)CC3)c(F)cc3c(=O)c(C(=O)O)cn1c23.C[C@H]1COc2c(N3CCN(C)CC3)c(F)cc3c(=O)c(C(=O)O)cn1c23.O [LEVOFLOXACIN]	32

System: Staphylococcus aureus
Assay: Antimicrobial activity against methicillin-sensitive Staphylococcus aureus ATCC 29213
Format: functional

SMILES	MIC [µg/mL]
CNC(=N)c1ccc2cc(-c3ccc(Oc4ccc(-c5cc6ccc(C(=N)NC)cc6[nH]5)cc4)cc3)[nH]c2c1	1 (≈ 1.95 µM)
C/N=C(\NC)c1ccc2cc(-c3ccc(Oc4ccc(-c5cc6ccc(C(=N)NC)cc6[nH]5)cc4)cc3)[nH]c2c1	0.5 (≈ 0.949 µM)
CC(C)NC(=N)c1ccc2cc(-c3ccc(Oc4ccc(-c5cc6ccc(C(=N)NC(C)C)cc6[nH]5)c(C(F)(F)F)c4)cn3)[nH]c2c1	0.5 (≈ 0.784 µM)
C/N=C(\NC)c1ccc2cc(-c3ccc(Oc4ccc(-c5cc6ccc(/C(=N\C)NC)cc6[nH]5)cc4)cc3)[nH]c2c1	8 (≈ 14.8 µM)
C[C@H]1COc2c(N3CCN(C)CC3)c(F)cc3c(=O)c(C(=O)O)cn1c23.C[C@H]1COc2c(N3CCN(C)CC3)c(F)cc3c(=O)c(C(=O)O)cn1c23.O [LEVOFLOXACIN]	0.25

System: Klebsiella pneumoniae
Assay: Antimicrobial activity against NDM-1 producing Klebsiella pneumoniae ATCC BAA-2146
Format: functional

SMILES	MIC [µg/mL]
CNC(=N)c1ccc2cc(-c3ccc(Oc4ccc(-c5cc6ccc(C(=N)NC)cc6[nH]5)cc4)cc3)[nH]c2c1	> 128
C/N=C(\NC)c1ccc2cc(-c3ccc(Oc4ccc(-c5cc6ccc(C(=N)NC)cc6[nH]5)cc4)cc3)[nH]c2c1	32 (≈ 60.8 µM)
CC(C)NC(=N)c1ccc2cc(-c3ccc(Oc4ccc(-c5cc6ccc(C(=N)NC(C)C)cc6[nH]5)c(C(F)(F)F)c4)cn3)[nH]c2c1	16 (≈ 25.1 µM)
C/N=C(\NC)c1ccc2cc(-c3ccc(Oc4ccc(-c5cc6ccc(/C(=N\C)NC)cc6[nH]5)cc4)cc3)[nH]c2c1	128 (≈ 237 µM)
C[C@H]1COc2c(N3CCN(C)CC3)c(F)cc3c(=O)c(C(=O)O)cn1c23.C[C@H]1COc2c(N3CCN(C)CC3)c(F)cc3c(=O)c(C(=O)O)cn1c23.O [LEVOFLOXACIN]	> 128

System: Escherichia coli
Assay: Antimicrobial activity against Escherichia coli ATCC 25922
Format: functional

SMILES	MIC [µg/mL]
CNC(=N)c1ccc2cc(-c3ccc(Oc4ccc(-c5cc6ccc(C(=N)NC)cc6[nH]5)cc4)cc3)[nH]c2c1	128 (≈ 250 µM)
C/N=C(\NC)c1ccc2cc(-c3ccc(Oc4ccc(-c5cc6ccc(C(=N)NC)cc6[nH]5)cc4)cc3)[nH]c2c1	16 (≈ 30.4 µM)
CC(C)NC(=N)c1ccc2cc(-c3ccc(Oc4ccc(-c5cc6ccc(C(=N)NC(C)C)cc6[nH]5)c(C(F)(F)F)c4)cn3)[nH]c2c1	8 (≈ 12.5 µM)
C/N=C(\NC)c1ccc2cc(-c3ccc(Oc4ccc(-c5cc6ccc(/C(=N\C)NC)cc6[nH]5)cc4)cc3)[nH]c2c1	64 (≈ 118 µM)

System: Staphylococcus aureus
Assay: Antimicrobial activity against methicillin- resistant Staphylococcus aureus ATCC 33591
Format: functional

SMILES	MIC [µg/mL]
CNC(=N)c1ccc2cc(-c3ccc(Oc4ccc(-c5cc6ccc(C(=N)NC)cc6[nH]5)cc4)cc3)[nH]c2c1	1 (≈ 1.95 µM)
C/N=C(\NC)c1ccc2cc(-c3ccc(Oc4ccc(-c5cc6ccc(C(=N)NC)cc6[nH]5)cc4)cc3)[nH]c2c1	0.25 (≈ 0.475 µM)
CC(C)NC(=N)c1ccc2cc(-c3ccc(Oc4ccc(-c5cc6ccc(C(=N)NC(C)C)cc6[nH]5)c(C(F)(F)F)c4)cn3)[nH]c2c1	0.5 (≈ 0.784 µM)
C/N=C(\NC)c1ccc2cc(-c3ccc(Oc4ccc(-c5cc6ccc(/C(=N\C)NC)cc6[nH]5)cc4)cc3)[nH]c2c1	8 (≈ 14.8 µM)
C[C@H]1COc2c(N3CCN(C)CC3)c(F)cc3c(=O)c(C(=O)O)cn1c23.C[C@H]1COc2c(N3CCN(C)CC3)c(F)cc3c(=O)c(C(=O)O)cn1c23.O [LEVOFLOXACIN]	0.25

System: Staphylococcus epidermidis
Assay: Antimicrobial activity against methicillin-susceptible Staphylococcus epidermidis ATCC 12228
Format: functional

SMILES	MIC [µg/mL]
CC(C)NC(=N)c1ccc2cc(-c3ccc(Oc4ccc(-c5cc6ccc(C(=N)NC(C)C)cc6[nH]5)c(C(F)(F)F)c4)cn3)[nH]c2c1	0.5 (≈ 0.784 µM)
C[C@H]1COc2c(N3CCN(C)CC3)c(F)cc3c(=O)c(C(=O)O)cn1c23.C[C@H]1COc2c(N3CCN(C)CC3)c(F)cc3c(=O)c(C(=O)O)cn1c23.O [LEVOFLOXACIN]	0.25

System: Providencia rettgeri
Assay: Antimicrobial activity against Providencia rettgeri ATCC 31052
Format: functional

SMILES	MIC [µg/mL]
CNC(=N)c1ccc2cc(-c3ccc(Oc4ccc(-c5cc6ccc(C(=N)NC)cc6[nH]5)cc4)cc3)[nH]c2c1	> 128
C/N=C(\NC)c1ccc2cc(-c3ccc(Oc4ccc(-c5cc6ccc(C(=N)NC)cc6[nH]5)cc4)cc3)[nH]c2c1	128 (≈ 243 µM)
CC(C)NC(=N)c1ccc2cc(-c3ccc(Oc4ccc(-c5cc6ccc(C(=N)NC(C)C)cc6[nH]5)c(C(F)(F)F)c4)cn3)[nH]c2c1	32 (≈ 50.2 µM)
C/N=C(\NC)c1ccc2cc(-c3ccc(Oc4ccc(-c5cc6ccc(/C(=N\C)NC)cc6[nH]5)cc4)cc3)[nH]c2c1	> 128
C[C@H]1COc2c(N3CCN(C)CC3)c(F)cc3c(=O)c(C(=O)O)cn1c23.C[C@H]1COc2c(N3CCN(C)CC3)c(F)cc3c(=O)c(C(=O)O)cn1c23.O [LEVOFLOXACIN]	0.125

System: Klebsiella aerogenes
Assay: Antimicrobial activity against Enterobacter aerogenes ATCC 45102
Format: functional

SMILES	MIC [µg/mL]
CNC(=N)c1ccc2cc(-c3ccc(Oc4ccc(-c5cc6ccc(C(=N)NC)cc6[nH]5)cc4)cc3)[nH]c2c1	> 128
C/N=C(\NC)c1ccc2cc(-c3ccc(Oc4ccc(-c5cc6ccc(C(=N)NC)cc6[nH]5)cc4)cc3)[nH]c2c1	64 (≈ 122 µM)
C/N=C(\NC)c1ccc2cc(-c3ccc(Oc4ccc(-c5cc6ccc(/C(=N\C)NC)cc6[nH]5)cc4)cc3)[nH]c2c1	> 128
C[C@H]1COc2c(N3CCN(C)CC3)c(F)cc3c(=O)c(C(=O)O)cn1c23.C[C@H]1COc2c(N3CCN(C)CC3)c(F)cc3c(=O)c(C(=O)O)cn1c23.O [LEVOFLOXACIN]	0.25

System: Klebsiella pneumoniae
Assay: Antimicrobial activity against ESBL-producing Klebsiella pneumoniae ATCC 700603
Format: functional

SMILES	MIC [µg/mL]
CNC(=N)c1ccc2cc(-c3ccc(Oc4ccc(-c5cc6ccc(C(=N)NC)cc6[nH]5)cc4)cc3)[nH]c2c1	> 128
C/N=C(\NC)c1ccc2cc(-c3ccc(Oc4ccc(-c5cc6ccc(C(=N)NC)cc6[nH]5)cc4)cc3)[nH]c2c1	64 (≈ 122 µM)
CC(C)NC(=N)c1ccc2cc(-c3ccc(Oc4ccc(-c5cc6ccc(C(=N)NC(C)C)cc6[nH]5)c(C(F)(F)F)c4)cn3)[nH]c2c1	16 (≈ 25.1 µM)
C/N=C(\NC)c1ccc2cc(-c3ccc(Oc4ccc(-c5cc6ccc(/C(=N\C)NC)cc6[nH]5)cc4)cc3)[nH]c2c1	> 128
C[C@H]1COc2c(N3CCN(C)CC3)c(F)cc3c(=O)c(C(=O)O)cn1c23.C[C@H]1COc2c(N3CCN(C)CC3)c(F)cc3c(=O)c(C(=O)O)cn1c23.O [LEVOFLOXACIN]	2

System: Acinetobacter calcoaceticus
Assay: Antimicrobial activity against Acinetobacter calcoaceticus ATCC 19606
Format: functional

SMILES	MIC [µg/mL]
CC(C)NC(=N)c1ccc2cc(-c3ccc(Oc4ccc(-c5cc6ccc(C(=N)NC(C)C)cc6[nH]5)c(C(F)(F)F)c4)cn3)[nH]c2c1	32 (≈ 50.2 µM)
C[C@H]1COc2c(N3CCN(C)CC3)c(F)cc3c(=O)c(C(=O)O)cn1c23.C[C@H]1COc2c(N3CCN(C)CC3)c(F)cc3c(=O)c(C(=O)O)cn1c23.O [LEVOFLOXACIN]	0.25

System: Klebsiella pneumoniae
Assay: Antimicrobial activity against Klebsiella pneumoniae 7
Format: functional

SMILES	MIC [µg/mL]
CC(C)NC(=N)c1ccc2cc(-c3ccc(Oc4ccc(-c5cc6ccc(C(=N)NC(C)C)cc6[nH]5)c(C(F)(F)F)c4)cn3)[nH]c2c1	16 (≈ 25.1 µM)
C[C@H]1COc2c(N3CCN(C)CC3)c(F)cc3c(=O)c(C(=O)O)cn1c23.C[C@H]1COc2c(N3CCN(C)CC3)c(F)cc3c(=O)c(C(=O)O)cn1c23.O [LEVOFLOXACIN]	16

System: Enterococcus faecalis
Assay: Antimicrobial activity against Vancomycin-sensitive Enterococcus faecalis ATCC 29212
Format: functional

SMILES	MIC [µg/mL]
CNC(=N)c1ccc2cc(-c3ccc(Oc4ccc(-c5cc6ccc(C(=N)NC)cc6[nH]5)cc4)cc3)[nH]c2c1	1 (≈ 1.95 µM)
C/N=C(\NC)c1ccc2cc(-c3ccc(Oc4ccc(-c5cc6ccc(C(=N)NC)cc6[nH]5)cc4)cc3)[nH]c2c1	1 (≈ 1.9 µM)
CC(C)NC(=N)c1ccc2cc(-c3ccc(Oc4ccc(-c5cc6ccc(C(=N)NC(C)C)cc6[nH]5)c(C(F)(F)F)c4)cn3)[nH]c2c1	0.5 (≈ 0.784 µM)
C/N=C(\NC)c1ccc2cc(-c3ccc(Oc4ccc(-c5cc6ccc(/C(=N\C)NC)cc6[nH]5)cc4)cc3)[nH]c2c1	8 (≈ 14.8 µM)
C[C@H]1COc2c(N3CCN(C)CC3)c(F)cc3c(=O)c(C(=O)O)cn1c23.C[C@H]1COc2c(N3CCN(C)CC3)c(F)cc3c(=O)c(C(=O)O)cn1c23.O [LEVOFLOXACIN]	1

System: Enterococcus faecalis
Assay: Antimicrobial activity against Vancomycin-resistant Enterococcus faecalis ATCC 51299
Format: functional

SMILES	MIC [µg/mL]
CNC(=N)c1ccc2cc(-c3ccc(Oc4ccc(-c5cc6ccc(C(=N)NC)cc6[nH]5)cc4)cc3)[nH]c2c1	1 (≈ 1.95 µM)
C/N=C(\NC)c1ccc2cc(-c3ccc(Oc4ccc(-c5cc6ccc(C(=N)NC)cc6[nH]5)cc4)cc3)[nH]c2c1	0.25 (≈ 0.475 µM)
CC(C)NC(=N)c1ccc2cc(-c3ccc(Oc4ccc(-c5cc6ccc(C(=N)NC(C)C)cc6[nH]5)c(C(F)(F)F)c4)cn3)[nH]c2c1	0.5 (≈ 0.784 µM)
C/N=C(\NC)c1ccc2cc(-c3ccc(Oc4ccc(-c5cc6ccc(/C(=N\C)NC)cc6[nH]5)cc4)cc3)[nH]c2c1	16 (≈ 29.6 µM)
C[C@H]1COc2c(N3CCN(C)CC3)c(F)cc3c(=O)c(C(=O)O)cn1c23.C[C@H]1COc2c(N3CCN(C)CC3)c(F)cc3c(=O)c(C(=O)O)cn1c23.O [LEVOFLOXACIN]	1

System: Citrobacter freundii
Assay: Antimicrobial activity against Citrobacter freundii ATCC 43864
Format: functional

SMILES	MIC [µg/mL]
CNC(=N)c1ccc2cc(-c3ccc(Oc4ccc(-c5cc6ccc(C(=N)NC)cc6[nH]5)cc4)cc3)[nH]c2c1	> 128
C/N=C(\NC)c1ccc2cc(-c3ccc(Oc4ccc(-c5cc6ccc(C(=N)NC)cc6[nH]5)cc4)cc3)[nH]c2c1	128 (≈ 243 µM)
CC(C)NC(=N)c1ccc2cc(-c3ccc(Oc4ccc(-c5cc6ccc(C(=N)NC(C)C)cc6[nH]5)c(C(F)(F)F)c4)cn3)[nH]c2c1	8 (≈ 12.5 µM)
C/N=C(\NC)c1ccc2cc(-c3ccc(Oc4ccc(-c5cc6ccc(/C(=N\C)NC)cc6[nH]5)cc4)cc3)[nH]c2c1	> 128
C[C@H]1COc2c(N3CCN(C)CC3)c(F)cc3c(=O)c(C(=O)O)cn1c23.C[C@H]1COc2c(N3CCN(C)CC3)c(F)cc3c(=O)c(C(=O)O)cn1c23.O [LEVOFLOXACIN]	0.03

System: Proteus vulgaris
Assay: Antimicrobial activity against Proteus vulgaris ATCC 29905
Format: functional

SMILES	MIC [µg/mL]
CNC(=N)c1ccc2cc(-c3ccc(Oc4ccc(-c5cc6ccc(C(=N)NC)cc6[nH]5)cc4)cc3)[nH]c2c1	> 128
C/N=C(\NC)c1ccc2cc(-c3ccc(Oc4ccc(-c5cc6ccc(C(=N)NC)cc6[nH]5)cc4)cc3)[nH]c2c1	128 (≈ 243 µM)
CC(C)NC(=N)c1ccc2cc(-c3ccc(Oc4ccc(-c5cc6ccc(C(=N)NC(C)C)cc6[nH]5)c(C(F)(F)F)c4)cn3)[nH]c2c1	16 (≈ 25.1 µM)
C/N=C(\NC)c1ccc2cc(-c3ccc(Oc4ccc(-c5cc6ccc(/C(=N\C)NC)cc6[nH]5)cc4)cc3)[nH]c2c1	> 128
C[C@H]1COc2c(N3CCN(C)CC3)c(F)cc3c(=O)c(C(=O)O)cn1c23.C[C@H]1COc2c(N3CCN(C)CC3)c(F)cc3c(=O)c(C(=O)O)cn1c23.O [LEVOFLOXACIN]	0.125

System: Pseudomonas aeruginosa
Assay: Antimicrobial activity against Pseudomonas aeruginosa ATCC 27853
Format: functional

SMILES	MIC [µg/mL]
CNC(=N)c1ccc2cc(-c3ccc(Oc4ccc(-c5cc6ccc(C(=N)NC)cc6[nH]5)cc4)cc3)[nH]c2c1	> 128
C/N=C(\NC)c1ccc2cc(-c3ccc(Oc4ccc(-c5cc6ccc(C(=N)NC)cc6[nH]5)cc4)cc3)[nH]c2c1	64 (≈ 122 µM)
CC(C)NC(=N)c1ccc2cc(-c3ccc(Oc4ccc(-c5cc6ccc(C(=N)NC(C)C)cc6[nH]5)c(C(F)(F)F)c4)cn3)[nH]c2c1	32 (≈ 50.2 µM)
C/N=C(\NC)c1ccc2cc(-c3ccc(Oc4ccc(-c5cc6ccc(/C(=N\C)NC)cc6[nH]5)cc4)cc3)[nH]c2c1	> 128
